“And” between values parts separate entries of the source, which are not always exact repeats. Identical values can stand only once. Inconclusive results and toxic doses are left out. Square brackets hold non-standard residues; d marks the D form. Peptide text beside a SMILES is read from it. * marks the point of attachment. ξ: configuration not given here. Ac5c = NC1(C(=O)O)CCCC1; Cbz = O=C(OCc1ccccc1)*; ξV = CC(C)C(N)C(=O)O
Test system: P388 leukemia ip, CD2F1 mice, survival T/C
Assay: NCI In Vivo Anticancer Drug Screen. Data for tumor model P388 Leukemia (intraperitoneal) in CD2F1 (CDF1) mice
Conditions: endpoint: median survival time, higher = longer survival
Method in brief: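 Mice carrying the transplanted tumor received test compound or vehicle. Survival was recorded in each group, and the value is the treated-group measurement divided by that of the vehicle-treated control group.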

[1] = dose: 50.0 mg/kg/injection, schedule: Q04DX003 (ip), vehicle: saline
[2] = dose: 100.0 mg/kg/injection, schedule: Q04DX003 (ip), vehicle: saline
[3] = dose: 6.25 mg/kg/injection, schedule: Q01DX009 (ip), vehicle: saline
[4] = dose: 12.5 mg/kg/injection, schedule: Q01DX009 (ip), vehicle: saline
[5] = dose: 25.0 mg/kg/injection, schedule: Q01DX009 (ip), vehicle: saline
[6] = dose: 50.0 mg/kg/injection, schedule: Q01DX009 (ip), vehicle: saline
[7] = dose: 100.0 mg/kg/injection, schedule: Q01DX009 (ip), vehicle: saline
[8] = dose: 60.0 mg/kg/injection, schedule: Q01DX005 (ip), vehicle: saline with Tween-80
[9] = dose: 120.0 mg/kg/injection, schedule: Q01DX005 (ip), vehicle: saline with Tween-80
[10] = dose: 60.0 mg/kg/injection, schedule: Q01DX005 (ip), vehicle: Klucel (hydroxypropylcellulose) (HPC)
[11] = dose: 120.0 mg/kg/injection, schedule: Q01DX005 (ip), vehicle: Klucel (hydroxypropylcellulose) (HPC)
[12] = dose: 240.0 mg/kg/injection, schedule: Q01DX005 (ip), vehicle: Klucel (hydroxypropylcellulose) (HPC)
[13] = dose: 100.0 mg/kg/injection, schedule: Q01DX009 (ip), vehicle: saline with Tween-80
[14] = dose: 200.0 mg/kg/injection, schedule: Q01DX009 (ip), vehicle: saline
[15] = dose: 50.0 mg/kg/injection, schedule: Q01DX009 (ip), vehicle: saline with Tween-80
[16] = dose: 200.0 mg/kg/injection, schedule: Q01DX009 (ip), vehicle: saline with Tween-80
[17] = dose: 50.0 mg/kg/injection, schedule: Q04DX003 (ip), vehicle: saline with Tween-80
[18] = dose: 100.0 mg/kg/injection, schedule: Q04DX003 (ip), vehicle: saline with Tween-80
[19] = dose: 200.0 mg/kg/injection, schedule: Q04DX003 (ip), vehicle: saline with Tween-80
[20] = dose: 50.0 mg/kg/injection, schedule: Q01DX005 (ip), vehicle: saline with Tween-80
[21] = dose: 240.0 mg/kg/injection, schedule: Q01DX005 (ip), vehicle: saline with Tween-80
[22] = dose: 12.5 mg/kg/injection, schedule: Q01DX009 (ip), vehicle: saline with Tween-80
[23] = dose: 100.0 mg/kg/injection, schedule: Q01DX005 (ip), vehicle: saline with Tween-80
[24] = dose: 200.0 mg/kg/injection, schedule: Q01DX005 (ip), vehicle: saline with Tween-80
[25] = dose: 25.0 mg/kg/injection, schedule: Q01DX005 (ip), vehicle: saline
[26] = dose: 50.0 mg/kg/injection, schedule: Q01DX005 (ip), vehicle: saline

Compound: O=S1(=O)CC2=C(C1)C1C=CC2C2C=CC12 (stereo not given)
- T/C (dose: 25.0 mg/kg/injection, schedule: Q04DX003 (ip), vehicle: saline): 98 % of control
- T/C [1]: 101 % of control
- T/C [2]: 107 % of control and 96 % of control

Compound: CCOC(=O)/[C](=N\N=P(N(C)C)(N(C)C)N(C)C)[Hg]/[C](=N/N=P(N(C)C)(N(C)C)N(C)C)C(=O)OCC
- T/C [3]: 101 % of control and 94 % of control
- T/C [4]: 99 % of control and 94 % of control
- T/C [5]: 103 % of control and 108 % of control
- T/C [6]: 106 % of control and 110 % of control

Compound: CN1COc2ccc3ccccc3c2C1
- T/C [5]: 101 % of control
- T/C [6]: 98 % of control
- T/C [7]: 106 % of control

Compound: O=S(=O)(Nc1nccs1)c1ccc(Nc2c3ccccc3nc3ncccc23)cc1
- T/C [8]: 93 % of control
- T/C [9]: 89 % of control

Compound: Brc1cnn(Cn2cc(Br)cn2)c1
- T/C [10]: 102 % of control
- T/C [11]: 102 % of control
- T/C [12]: 99 % of control

Compound: CN1COC(OC2OCN(C)CC2(C)C)C(C)(C)C1 (stereo not given)
- T/C [13]: 160 % of control

Compound: CCOC(=O)C1(O)CC2(CCC(OCc3ccccc3)CC2)C(=O)O1 (stereo not given)
- T/C [6]: 102 % of control
- T/C [7]: 100 % of control
- T/C [14]: 98 % of control

Compound: O=S(=O)(c1ccccc1)N1OC1c1ccccc1 (stereo not given)
- T/C [15]: 100 % of control
- T/C [10]: 104 % of control
- T/C [13]: 86 % of control
- T/C [11]: 104 % of control
- T/C [12]: 99 % of control

Compound: Nc1nc(N)c2c(Cl)c(CNc3ccc(Cl)c(Cl)c3)ccc2n1
- T/C (dose: 0.18 mg/kg/injection, schedule: Q01DX009 (ip), vehicle: saline with Tween-80): 97 % of control
- T/C (dose: 0.37 mg/kg/injection, schedule: Q01DX009 (ip), vehicle: saline with Tween-80): 102 % of control
- T/C (dose: 0.75 mg/kg/injection, schedule: Q01DX009 (ip), vehicle: saline with Tween-80): 99 % of control
- T/C (dose: 1.5 mg/kg/injection, schedule: Q01DX009 (ip), vehicle: saline with Tween-80): 99 % of control

Compound: COc1ccc(Br)cc1
- T/C [15]: 104 % of control
- T/C [1]: 100 % of control
- T/C [13]: 118 % of control
- T/C [2]: 105 % of control
- T/C [16]: 109 % of control
- T/C (dose: 200.0 mg/kg/injection, schedule: Q04DX003 (ip), vehicle: saline): 110 % of control

Compound: O=C1C=C(Cl)C(O)C1(Cl)Cl (stereo not given)
- T/C [3]: 94 % of control
- T/C [4]: 92 % of control

Compound: CCOC(=O)/C(=C/C(C#N)=C/N(C)C)CC
- T/C [17]: 104 % of control
- T/C [18]: 95 % of control
- T/C [19]: 109 % of control

Compound: Cc1cc(C)n(C2=NS(=O)(=O)c3ccccc3N2c2ccccc2)n1
- T/C (dose: 100.0 mg/kg/injection, schedule: Q01DX001 (ip), vehicle: saline with Tween-80): 102 % of control
- T/C (dose: 200.0 mg/kg/injection, schedule: Q01DX001 (ip), vehicle: saline with Tween-80): 98 % of control
- T/C (dose: 400.0 mg/kg/injection, schedule: Q01DX001 (ip), vehicle: saline with Tween-80): 97 % of control

Compound: Oc1c2ccccc2c(O)c2nc3ccccc3nc12
- T/C [6]: 100 % of control
- T/C [7]: 99 % of control
- T/C [14]: 100 % of control

Compound: C[Si](C)(C)CSC#N
- T/C (dose: 7.5 mg/kg/injection, schedule: Q01DX005 (ip), vehicle: saline with Tween-80): 97 % of control
- T/C (dose: 15.0 mg/kg/injection, schedule: Q01DX005 (ip), vehicle: saline with Tween-80): 101 % of control
- T/C (dose: 30.0 mg/kg/injection, schedule: Q01DX005 (ip), vehicle: saline with Tween-80): 104 % of control

Compound: CN(C)c1cc2c(nn1)Nc1ccccc1S2
- T/C [15]: 96 % of control
- T/C [13]: 96 % of control
- T/C [16]: 90 % of control

Compound: O=C1C(O)=C(O)C(=O)C(O)=C1O
- T/C [6]: 108 % of control
- T/C [7]: 111 % of control
- T/C [14]: 117 % of control

Compound: Cc1nc2c([N+](=O)[O-])c(NCc3ccccc3)c([N+](=O)[O-])cc2[nH]1
- T/C [18]: 97 % of control
- T/C [19]: 95 % of control
- T/C (dose: 400.0 mg/kg/injection, schedule: Q04DX003 (ip), vehicle: saline with Tween-80): 101 % of control

Compound: CN(C)c1ccc(N=NN=c2n(C)c3ccccc3n2C)c(Cl)c1
- T/C (dose: 6.25 mg/kg/injection, schedule: Q01DX005 (ip), vehicle: saline with Tween-80): 103 % of control
- T/C (dose: 12.5 mg/kg/injection, schedule: Q01DX005 (ip), vehicle: saline with Tween-80): 106 % of control and 109 % of control
- T/C (dose: 25.0 mg/kg/injection, schedule: Q01DX005 (ip), vehicle: saline with Tween-80): 113 % of control and 115 % of control
- T/C [20]: 117 % of control

Compound: Cc1cnc2cc(-c3ccccc3)[nH]c2n1
- T/C (dose: 15.0 mg/kg/injection, schedule: Q01DX005 (ip), vehicle: Klucel (hydroxypropylcellulose) (HPC)): 90 % of control
- T/C (dose: 30.0 mg/kg/injection, schedule: Q01DX005 (ip), vehicle: Klucel (hydroxypropylcellulose) (HPC)): 87 % of control
- T/C [10]: 88 % of control

Compound: CCCCCCCC1(O)OC(=O)C(C)=C1C (stereo not given)
- T/C (dose: 12.5 mg/kg/injection, schedule: Q04DX003 (ip), vehicle: saline with Tween-80): 101 % of control
- T/C (dose: 25.0 mg/kg/injection, schedule: Q04DX003 (ip), vehicle: saline with Tween-80): 108 % of control
- T/C [17]: 100 % of control

Compound: C[C@@]12CCCC[C@@H]1Nc1ccccc12
- T/C [8]: 98 % of control
- T/C [9]: 100 % of control
- T/C [21]: 97 % of control

Compound: N#CC(C#N)=C1Cc2ccccc2C1
- T/C (dose: 25.0 mg/kg/injection, schedule: Q01DX001 (ip), vehicle: saline with Tween-80): 109 % of control
- T/C (dose: 50.0 mg/kg/injection, schedule: Q01DX001 (ip), vehicle: saline with Tween-80): 100 % of control

Compound: NCCN.NCCN.[Cl-].[O]=[Re]=[O]
- T/C (dose: 60.0 mg/kg/injection, schedule: Q01DX005 (ip), vehicle: saline): 100 % of control
- T/C (dose: 120.0 mg/kg/injection, schedule: Q01DX005 (ip), vehicle: saline): 102 % of control
- T/C (dose: 240.0 mg/kg/injection, schedule: Q01DX005 (ip), vehicle: saline): 100 % of control

Compound: Cc1c2cccc(Sc3ccccc3)c2c2c3c(cccc13)[S+](c1ccccc1)C2 (stereo not given)
- T/C (dose: 6.25 mg/kg/injection, schedule: Q01DX009 (ip), vehicle: saline with Tween-80): 113 % of control
- T/C [22]: 115 % of control

Compound: COc1cccc(CSCC(N)C(=O)O)c1 (stereo not given)
- T/C [20]: 104 % of control
- T/C [23]: 104 % of control
- T/C [24]: 90 % of control

Compound: CC(C)C(NC(=O)C1(NC(=O)OCc2ccccc2)CCCC1)C(=O)O (stereo not given) (Cbz-[Ac5c]-[ξV]-OH)
- T/C [20]: 99 % of control
- T/C [23]: 96 % of control
- T/C [24]: 99 % of control

Compound: NCCNCCN1C(=O)c2cccc3cccc(c23)C1=O
- T/C (dose: 100.0 mg/kg/injection, schedule: Q01DX001 (ip), vehicle: saline): 110 % of control
- T/C (dose: 200.0 mg/kg/injection, schedule: Q01DX001 (ip), vehicle: saline): 86 % of control

Compound: COC(=O)C1=CO[C@@H](OC2OC(CO)C(O)C(O)C2O)[C@@H]2[C@@H](C)[C@@H](O)[C@@H](O)[C@]12O (stereo not given in full)
- T/C [25]: 102 % of control
- T/C [26]: 102 % of control
- T/C (dose: 100.0 mg/kg/injection, schedule: Q01DX005 (ip), vehicle: saline): 100 % of control
- T/C (dose: 200.0 mg/kg/injection, schedule: Q01DX005 (ip), vehicle: saline): 108 % of control

Compound: CCCC(C#N)OC(=O)c1ccccc1 (stereo not given)
- T/C [22]: 104 % of control
- T/C (dose: 25.0 mg/kg/injection, schedule: Q01DX009 (ip), vehicle: saline with Tween-80): 100 % of control
- T/C [15]: 104 % of control

Compound: Cc1cccc(C(C#N)C(=O)CCCC(=O)Nc2ccccc2[N+](=O)[O-])c1 (stereo not given)
- T/C [8]: 98 % of control
- T/C [9]: 100 % of control
- T/C [21]: 94 % of control

Compound: CCCCC(CC)CN1CN(CC(CC)CCCC)CC(C)(N)C1 (stereo not given)
- T/C [20]: 100 % of control
- T/C [23]: 98 % of control

Compound: COc1ccc2c(c1)C(CCN(C)C)(CCN(C)C)C(=O)CC2
- T/C (dose: 12.5 mg/kg/injection, schedule: Q01DX005 (ip), vehicle: saline): 94 % of control
- T/C [25]: 95 % of control
- T/C [26]: 104 % of control and 94 % of control
